Laboratory results reported in paper PMC3183106 (Pharmacological research : the official journal of the …, 2011).
Like-named read-outs stand apart in the source and are kept apart here.

Experiments:
[1] = human, in vivo
[2] = cited from earlier work
[3] = mean ± SEM
[4] = mean ± SEM; remark: listed apart in the source
[5] = cited from earlier work; remark: listed apart in the source

Structure (SMILES): C[S+]([O-])CCCCN=C=S (stereo not shown) [SFN, sulforaphane]
- Time by which total metabolites almost completely cleared from the plasma [1]: ≤ 24 h
- SFN recovered after consumption ([2]; broccoli powder): 19%
- SFN recovered after consumption ([2]; broccoli sprouts): 74%

Structure (SMILES): CSCCCCNC(=S)SC[C@H](N)C(=O)NCC(=O)O [ERN-CG, ERN-cysteinylglycine]
- Percent of metabolite relative to total for respective ITC in the plasma ([3]; 12 hrs after broccoli sprouts, GSTP1 A/A (n=7)): 69.4 ± 1.38%
- Percent of metabolite relative to total for respective ITC in the plasma ([3]; 12 hrs after broccoli sprouts, GSTP1 A/G (n=5)): 67.6 ± 1.19%
- Percent of metabolite relative to total for respective ITC in the plasma ([3]; 12 hrs after broccoli supplement, GSTP1 A/A (n=7)): 72.9 ± 1.78%
- Percent of metabolite relative to total for respective ITC in the plasma ([3]; 12 hrs after broccoli supplement, GSTP1 A/G (n=5)): 75.1 ± 1.44%
- Percent of metabolite relative to total metabolites for respective ITC in urine ([4]; first 12 hrs after broccoli sprouts, GSTP1 A/A (n=7)): 0.11 ± 0.01%
- Percent of metabolite relative to total metabolites for respective ITC in urine ([4]; first 12 hrs after broccoli sprouts, GSTP1 A/G (n=5)): 0.12 ± 0.04%
- Percent of metabolite relative to total metabolites for respective ITC in urine ([4]; first 12 hrs after broccoli supplement, GSTP1 A/A (n=7)): 0.89 ± 0.31%
- Percent of metabolite relative to total metabolites for respective ITC in urine ([4]; first 12 hrs after broccoli supplement, GSTP1 A/G (n=5)): 2.00 ± 0.77%

Structure (SMILES): CC(C)=CCC/C(C)=C/C=C/C(C)=C/C=C/C(C)=C/C=C/C=C(C)/C=C/C=C(C)/C=C/C=C(\C)CCC=C(C)C [Lycopene]
- Increase in serum concentrations ([5]; heat processed tomato juice): 2–3 fold
- Change in serum concentrations ([5]; unprocessed tomato juice): no change
